Tests used:
Assay in all cases: radiometric filter-binding kinase assay, Kinase HotSpot
Settings in all cases: compound 0.5 µM; ATP 10 µM
AKT1 (human) = AKT1 (human) (UniProt P31749)
NEK2 (human) = NEK2 (human) (UniProt P51955)
EPHA8 (human) = EPHA8 (human) (UniProt P29322)
PRKD1 (human) = PRKD1 (human) (UniProt Q15139)
OXSR1 (human) = OXSR1 (human) (UniProt O95747)
SRPK3 (human) = SRPK3 (human) (UniProt Q9UPE1)
AURKA (human) = AURKA (human) (UniProt O14965)
ABL2 (human) = ABL2 (human) (UniProt P42684)
MAP2K1 (human) = MAP2K1 (human) (UniProt Q02750)
WEE1 (human) = WEE1 (human) (UniProt P30291)
PLK2 (human) = PLK2 (human) (UniProt Q9NYY3)
IRAK1 (human) = IRAK1 (human) (UniProt P51617)
GRK4 (human) = GRK4 (human) (UniProt P32298)
RPS6KB2 (human) = RPS6KB2 (human) (UniProt Q9UBS0)
PAK7 (human) = PAK7 (human) (UniProt Q9P286)
PAK7 (human), sequence (Q9P286 whole entry, looked up): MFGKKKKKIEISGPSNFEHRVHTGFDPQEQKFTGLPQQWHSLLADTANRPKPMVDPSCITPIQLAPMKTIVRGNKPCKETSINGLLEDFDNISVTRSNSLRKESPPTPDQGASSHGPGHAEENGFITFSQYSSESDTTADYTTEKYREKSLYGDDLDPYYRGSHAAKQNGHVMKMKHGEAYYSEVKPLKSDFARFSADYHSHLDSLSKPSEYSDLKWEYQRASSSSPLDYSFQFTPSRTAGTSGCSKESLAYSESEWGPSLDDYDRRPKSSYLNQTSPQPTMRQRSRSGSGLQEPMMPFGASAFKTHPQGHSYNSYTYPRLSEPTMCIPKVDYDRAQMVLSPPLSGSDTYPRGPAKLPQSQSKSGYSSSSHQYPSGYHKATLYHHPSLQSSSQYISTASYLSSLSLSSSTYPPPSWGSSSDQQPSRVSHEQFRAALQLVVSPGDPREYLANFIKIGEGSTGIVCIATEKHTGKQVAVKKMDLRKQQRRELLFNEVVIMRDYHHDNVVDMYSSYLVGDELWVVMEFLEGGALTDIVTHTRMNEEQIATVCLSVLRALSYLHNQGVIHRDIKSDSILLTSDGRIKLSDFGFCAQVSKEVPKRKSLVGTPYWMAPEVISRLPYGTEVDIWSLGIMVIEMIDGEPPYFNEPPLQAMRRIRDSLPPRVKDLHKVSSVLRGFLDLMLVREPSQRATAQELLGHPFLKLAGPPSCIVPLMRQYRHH

EPHB2 (human) = EPHB2 (human) (UniProt P29323)
MAPK10 (human) = MAPK10 (human) (UniProt P53779)
MAPK10 (human), sequence (P53779 whole entry, looked up): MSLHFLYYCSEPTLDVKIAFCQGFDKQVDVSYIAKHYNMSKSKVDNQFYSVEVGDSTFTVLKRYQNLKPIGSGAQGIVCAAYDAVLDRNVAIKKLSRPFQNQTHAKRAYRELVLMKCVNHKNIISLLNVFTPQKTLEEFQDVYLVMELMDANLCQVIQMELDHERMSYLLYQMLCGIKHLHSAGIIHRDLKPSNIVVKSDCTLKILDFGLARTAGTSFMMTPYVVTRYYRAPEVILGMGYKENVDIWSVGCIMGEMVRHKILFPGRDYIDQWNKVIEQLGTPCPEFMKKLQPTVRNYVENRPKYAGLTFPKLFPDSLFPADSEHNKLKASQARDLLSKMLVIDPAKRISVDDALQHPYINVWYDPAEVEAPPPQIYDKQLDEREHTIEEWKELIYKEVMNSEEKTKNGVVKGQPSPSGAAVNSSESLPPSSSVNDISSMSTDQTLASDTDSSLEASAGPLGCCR

GSG2 (human) = GSG2 (human) (UniProt Q8TF76)
CDK4 CCND1 (human) = CDK4 CCND1 (human) (UniProt P24385+P11802)
SIK2 (human) = SIK2 (human) (UniProt Q9H0K1)
SIK2 (human), sequence (Q9H0K1 whole entry, looked up): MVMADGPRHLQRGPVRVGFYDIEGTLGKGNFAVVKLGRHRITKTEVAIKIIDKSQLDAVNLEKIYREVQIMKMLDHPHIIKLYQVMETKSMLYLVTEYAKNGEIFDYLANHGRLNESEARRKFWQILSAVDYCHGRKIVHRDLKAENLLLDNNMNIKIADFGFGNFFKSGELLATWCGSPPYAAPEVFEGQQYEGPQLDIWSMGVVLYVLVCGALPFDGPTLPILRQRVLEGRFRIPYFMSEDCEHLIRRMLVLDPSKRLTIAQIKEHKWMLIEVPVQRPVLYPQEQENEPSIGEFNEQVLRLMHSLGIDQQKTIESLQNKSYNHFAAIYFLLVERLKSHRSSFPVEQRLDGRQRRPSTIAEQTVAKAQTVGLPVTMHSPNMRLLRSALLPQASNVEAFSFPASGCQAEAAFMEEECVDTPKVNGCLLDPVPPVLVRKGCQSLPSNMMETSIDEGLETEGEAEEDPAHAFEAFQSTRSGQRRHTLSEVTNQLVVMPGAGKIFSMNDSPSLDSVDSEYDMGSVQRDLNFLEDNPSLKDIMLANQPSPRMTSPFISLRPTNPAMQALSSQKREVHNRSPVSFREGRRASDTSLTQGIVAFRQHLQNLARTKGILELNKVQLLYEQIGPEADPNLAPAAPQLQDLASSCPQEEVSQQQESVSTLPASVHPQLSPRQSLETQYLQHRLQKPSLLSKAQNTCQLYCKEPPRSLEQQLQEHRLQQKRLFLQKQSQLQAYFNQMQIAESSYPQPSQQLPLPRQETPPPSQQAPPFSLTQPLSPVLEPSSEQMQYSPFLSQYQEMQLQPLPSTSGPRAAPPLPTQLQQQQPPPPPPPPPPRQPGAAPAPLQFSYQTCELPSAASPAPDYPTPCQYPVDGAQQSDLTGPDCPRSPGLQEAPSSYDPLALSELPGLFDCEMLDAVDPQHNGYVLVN

DYRK1B (human) = DYRK1B (human) (UniProt Q9Y463)
MYO3B (human) = MYO3B (human) (UniProt Q8WXR4)
TLK2 (human) = TLK2 (human) (UniProt Q86UE8)
TLK2 (human), sequence (Q86UE8 whole entry, looked up): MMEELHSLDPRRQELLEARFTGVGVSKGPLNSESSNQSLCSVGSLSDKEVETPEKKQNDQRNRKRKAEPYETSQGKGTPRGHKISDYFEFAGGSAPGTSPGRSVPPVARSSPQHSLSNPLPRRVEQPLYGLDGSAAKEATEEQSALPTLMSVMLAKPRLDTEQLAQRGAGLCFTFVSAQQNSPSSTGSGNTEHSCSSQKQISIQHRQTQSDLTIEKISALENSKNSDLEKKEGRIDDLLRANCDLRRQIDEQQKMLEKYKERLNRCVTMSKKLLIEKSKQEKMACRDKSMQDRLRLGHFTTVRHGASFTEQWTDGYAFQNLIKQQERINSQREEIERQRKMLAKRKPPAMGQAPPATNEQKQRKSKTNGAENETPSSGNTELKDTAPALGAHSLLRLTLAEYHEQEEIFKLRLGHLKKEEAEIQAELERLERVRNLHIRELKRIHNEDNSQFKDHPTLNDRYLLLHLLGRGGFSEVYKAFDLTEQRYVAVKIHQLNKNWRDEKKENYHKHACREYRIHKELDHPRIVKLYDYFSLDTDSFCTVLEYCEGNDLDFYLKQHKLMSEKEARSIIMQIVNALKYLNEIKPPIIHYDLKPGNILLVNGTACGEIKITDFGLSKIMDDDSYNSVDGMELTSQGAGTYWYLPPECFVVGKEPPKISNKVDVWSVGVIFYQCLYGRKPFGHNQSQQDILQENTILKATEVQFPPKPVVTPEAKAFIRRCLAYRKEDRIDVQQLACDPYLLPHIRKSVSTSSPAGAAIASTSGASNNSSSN

BTK (human) = BTK (human) (UniProt Q06187)
JAK3 JH1 JH2 (human) = JAK3 JH1 JH2 (human) (UniProt P52333)
RPS6KA4 KD2 (human) = RPS6KA4 KD2 (human) (UniProt O75676)
FGR (human) = FGR (human) (UniProt P09769)
MAPK9 (human) = MAPK9 (human) (UniProt P45984)
CDC42BPA (human) = CDC42BPA (human) (UniProt Q5VT25)
CDC42BPA (human), sequence (Q5VT25 whole entry, looked up): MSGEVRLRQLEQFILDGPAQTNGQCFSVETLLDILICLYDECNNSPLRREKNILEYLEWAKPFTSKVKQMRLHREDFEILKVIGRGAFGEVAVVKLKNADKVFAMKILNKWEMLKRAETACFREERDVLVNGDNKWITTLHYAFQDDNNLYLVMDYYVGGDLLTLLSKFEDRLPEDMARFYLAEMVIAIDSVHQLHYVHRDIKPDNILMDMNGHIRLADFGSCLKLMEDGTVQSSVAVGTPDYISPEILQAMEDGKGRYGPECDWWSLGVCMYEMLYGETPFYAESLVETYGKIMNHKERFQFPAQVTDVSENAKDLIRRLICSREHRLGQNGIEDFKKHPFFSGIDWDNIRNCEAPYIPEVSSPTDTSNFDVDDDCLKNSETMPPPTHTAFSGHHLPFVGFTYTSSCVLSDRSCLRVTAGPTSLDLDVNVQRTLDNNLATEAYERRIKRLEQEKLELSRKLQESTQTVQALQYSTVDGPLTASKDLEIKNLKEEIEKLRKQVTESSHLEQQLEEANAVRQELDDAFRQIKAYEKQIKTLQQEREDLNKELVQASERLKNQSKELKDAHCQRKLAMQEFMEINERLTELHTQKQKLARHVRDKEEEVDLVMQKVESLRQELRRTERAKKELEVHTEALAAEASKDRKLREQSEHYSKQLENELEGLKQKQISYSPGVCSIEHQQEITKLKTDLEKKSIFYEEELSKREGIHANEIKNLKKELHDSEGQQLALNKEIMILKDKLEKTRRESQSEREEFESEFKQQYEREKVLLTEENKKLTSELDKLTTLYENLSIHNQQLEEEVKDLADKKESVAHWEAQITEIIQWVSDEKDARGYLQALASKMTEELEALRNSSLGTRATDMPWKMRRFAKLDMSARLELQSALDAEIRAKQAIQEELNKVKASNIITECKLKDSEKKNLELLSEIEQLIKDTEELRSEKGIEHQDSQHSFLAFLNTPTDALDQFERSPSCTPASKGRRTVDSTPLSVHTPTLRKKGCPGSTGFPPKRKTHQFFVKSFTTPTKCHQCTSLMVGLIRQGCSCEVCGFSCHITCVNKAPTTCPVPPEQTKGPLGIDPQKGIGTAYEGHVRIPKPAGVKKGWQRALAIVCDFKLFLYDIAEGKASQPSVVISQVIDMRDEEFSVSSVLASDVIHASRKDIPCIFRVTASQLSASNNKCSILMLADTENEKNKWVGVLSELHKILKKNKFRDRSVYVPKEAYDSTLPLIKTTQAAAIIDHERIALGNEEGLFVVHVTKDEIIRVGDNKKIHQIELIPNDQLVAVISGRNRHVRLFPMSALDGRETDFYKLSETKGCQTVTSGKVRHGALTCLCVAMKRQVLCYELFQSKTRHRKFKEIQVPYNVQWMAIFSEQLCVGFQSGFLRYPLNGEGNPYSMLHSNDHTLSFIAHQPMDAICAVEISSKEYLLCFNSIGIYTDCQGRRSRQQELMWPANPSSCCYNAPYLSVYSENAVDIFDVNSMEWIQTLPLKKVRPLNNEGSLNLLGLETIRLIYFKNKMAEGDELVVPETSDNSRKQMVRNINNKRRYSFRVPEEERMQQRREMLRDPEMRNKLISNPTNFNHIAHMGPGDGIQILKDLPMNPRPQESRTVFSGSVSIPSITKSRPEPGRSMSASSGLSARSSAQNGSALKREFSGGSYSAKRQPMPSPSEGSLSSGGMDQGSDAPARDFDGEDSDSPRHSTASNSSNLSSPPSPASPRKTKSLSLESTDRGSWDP

DMPK (human) = DMPK (human) (UniProt Q09013)
FGFR1 (human) = FGFR1 (human) (UniProt P11362)
CDK5 CDK5R1 p35 (human) = CDK5 CDK5R1 p35 (human) (UniProt Q00535+Q15078)
PRKCD (human) = PRKCD (human) (UniProt Q05655)
NTRK1 (human) = NTRK1 (human) (UniProt P04629)
TNK2 (human) = TNK2 (human) (UniProt Q07912)
RPS6KA1 KD1 KD2 (human) = RPS6KA1 KD1 KD2 (human) (UniProt Q15418)
CDC42BPB (human) = CDC42BPB (human) (UniProt Q9Y5S2)
TAOK2 (human) = TAOK2 (human) (UniProt Q9UL54)
[1] = biological target: JAK1 JH1 catalytic (human) (UniProt P23458)
ALK (human) = ALK (human) (UniProt Q9UM73)
FGFR2 (human) = FGFR2 (human) (UniProt P21802)
CAMK2A (human) = CAMK2A (human) (UniProt Q9UQM7)

AURKA (human), sequence (O14965 whole entry, looked up): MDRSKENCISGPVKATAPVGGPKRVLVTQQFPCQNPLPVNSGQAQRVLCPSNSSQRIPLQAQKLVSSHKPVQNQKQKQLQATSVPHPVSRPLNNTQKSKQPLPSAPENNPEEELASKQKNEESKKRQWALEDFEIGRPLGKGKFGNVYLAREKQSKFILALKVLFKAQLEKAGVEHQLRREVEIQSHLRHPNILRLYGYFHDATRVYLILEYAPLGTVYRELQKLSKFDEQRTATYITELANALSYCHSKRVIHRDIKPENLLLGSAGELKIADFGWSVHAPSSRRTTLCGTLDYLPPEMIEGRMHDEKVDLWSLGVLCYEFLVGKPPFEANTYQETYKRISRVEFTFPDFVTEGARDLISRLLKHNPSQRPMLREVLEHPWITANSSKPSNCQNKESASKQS

CCC(=O)Nc1ccc2ncnc(Nc3cccc(Br)c3)c2c1
residual activity (AKT1 (human)): 95.8%
residual activity (NEK2 (human)): 87.5%
residual activity (EPHA8 (human)): 96.6%
residual activity (PRKD1 (human)): 97.9%
residual activity (OXSR1 (human)): 107%
residual activity (SRPK3 (human)): 97%
residual activity (AURKA (human)): 97.4%
residual activity (ABL2 (human)): 96.6%
residual activity (MAP2K1 (human)): 105%
residual activity (WEE1 (human)): 80.2%
residual activity (PLK2 (human)): 108%
residual activity (IRAK1 (human)): 92.7%
residual activity (GRK4 (human)): 96.2%
residual activity (RPS6KB2 (human)): 94.9%
residual activity (PAK7 (human)): 91.6%
residual activity (EPHB2 (human)): 95.1%
residual activity (MAPK10 (human)): 96.5%
residual activity (GSG2 (human)): 95.2%
residual activity (CDK4 CCND1 (human)): 101%
residual activity (SIK2 (human)): 98.7%
residual activity (DYRK1B (human)): 95.2%
residual activity (MYO3B (human)): 135%
residual activity (TLK2 (human)): 104%
residual activity (BTK (human)): 89.4%
residual activity (JAK3 JH1 JH2 (human)): 98.3%
residual activity (RPS6KA4 KD2 (human)): 106%
residual activity (FGR (human)): 93.2%
residual activity (MAPK9 (human)): 78.3%
residual activity (CDC42BPA (human)): 101%
residual activity (DMPK (human)): 92%
residual activity (FGFR1 (human)): 108%
residual activity (CDK5 CDK5R1 p35 (human)): 100%
residual activity (PRKCD (human)): 93.8%
residual activity (NTRK1 (human)): 95.8%
residual activity (TNK2 (human)): 93.5%
residual activity (RPS6KA1 KD1 KD2 (human)): 88.7%
residual activity (CDC42BPB (human)): 114%
residual activity (TAOK2 (human)): 91.4%
residual activity [1]: 96.6%
residual activity (ALK (human)): 83.1%
residual activity (FGFR2 (human)): 99.8%
residual activity (CAMK2A (human)): 85.7%

Reference: the kinase profiling compilation of Christmann-Franck et al. (2016)
